Experimental data taken from patent publication US20170266319A1, “METHODS AND COMPOSITIONS FOR TREATING CONDITIONS ASSOCIATED WITH SPINAL CORD INJURY” (priority 2016, published 2017).
“Also recorded” adds a separate entry of the source.

Experiments:
Format in all cases: in vivo
[1] = system: hM4Di-expressing Vglut2+ spinal interneurons; experiment: Colorectal distension (CRD) and c-Fos analyses after chemogenetic silencing; details: T3 SCI Vglut2-Cre mice injected with AAV-hSyn-DIO-hM4Di-mCherry; CNO 1.0 mg/kg i.p. 30 min before CRD, day 28 post-injury, vs vehicle
Method: Colorectal distension was induced as previously reported3, 12, 13 with minor modification. A 4-French, 60 mm balloon-tipped catheter (Swan-Ganz monitoring catheter model 116F4; Edwards Life Sciences) was inserted 1.5 cm into the rectum before securing the catheter to the tail with surgical tape. The balloon was inflated with 0.2 ml of air for 30 sec then deflated 60 sec. This 90 sec cycle was repeated for 90 min. Mice were perfused 30 min after the final cycle of inflation. The number of c-Fos^+ cells were counted and analyzed in 2 representative horizontal spinal cord sections at T4-9 level from multiple SCI animals with or without CRD stimulation. The number of animals analyzed were: uninjured with or without CRD, n=3/group; T3 SCI (day 28) without CRD, n=3; T3 SCI (day 28) with CRD, n=5; Vglut2-Cre; cc-EGFP+T3 SCI (day 28) with CRD, n=3; Chat-Cre; cc-EGFP+T3 SCI (day 28) with CRD, n=3 (FIG. 7). To evaluate the effects of DREADD in mice with CRD-induced activation of visceral-sympathetic reflex, CNO (1.0 mg/kg body weight, i.p.; Sigma) or vehicle saline was injected into Vglut2-Cre+T3SCI+AAV8-hSyn-DIO-hM4D(Gi)-mCherry mice at day 28 post-injury, 30 min before the induction of CRD (n=3 each) (FIG. 9).

[2] = system: Vglut2+ spinal interneurons expressing hM4Di DREADD; experiment: DREADD experiment: T3 SCI immune suppression, Vglut2-Cre mice; details: T3 SCI Vglut2-Cre mice with AAV8-hSyn-DIO-hM4D(Gi)-mCherry; CNO 1 mg/kg 2x/day, day 14-27 post-injury; day 28
Method: (§1) AAV8-hSyn-DIO-hM4Di-mCherry (AAV8-hSyn-DIO-hM4D(Gi)-mCherry; 7×10^12 vg/ml; UNC Vector Core) was injected into T5 and 7 levels of the spinal cord of Vglut2-Cre, Chat-Cre, or WT mice at P14 (0.8 μl/site, 0.25 mm lateral, 0.5 mm in depth). […] T3 SCI was induced at 8 weeks old, and then CNO (1.0 mg/kg body weight, i.p.; Sigma) was injected twice per day from day 14 to 27 post-injury (FIG. 3b). Small cohorts of mice from each colony were used as they reached the appropriate age for experimentation. […]
(§2) Spleens were harvested in Flow Cytometry Staining Buffer (eBioscience) and cell suspensions were made by expressing spleen tissue through a cell strainer using the plunger of a 10 ml syringe. […] Splenocytes were counted on a hemocytometer and 5×10^5 cells were incubated with Fc-block (anti-mouse-CD16/CD32 antibody; eBioscience). […] Splenocytes (10,000 events/sample) were analyzed using a FACSCanto flow cytometer with FACSDiva software (BD Biosciences). […] The number of each subset was calculated as the percentage of labeled cells multiplied by the total number of splenocytes.

[3] = system: Chat+ spinal interneurons expressing hM4Di DREADD; experiment: DREADD experiment: T3 SCI immune suppression, Chat-Cre mice; details: T3 SCI Chat-Cre mice with AAV8-hSyn-DIO-hM4D(Gi)-mCherry; CNO 1 mg/kg 2x/day, day 14-27 post-injury
Method: as §1, §2

SMILES: C[N+]1([O-])CCN(C2=Nc3cc(Cl)ccc3Nc3ccccc32)CC1 [CNO, clozapine-N-oxide]
- c-Fos expression elicited by colorectal distension (silencing of hM4DGi+ spinal neurons) [1]: reduces c-Fos expression; also recorded: significant silencing
- Splenic atrophy [2]: reversed
- Total numbers of splenocytes, including CD4+ and CD8+ T cells and B220+ B cells [2]: restored to pre-injury levels
- Immune protection [3]: modest non-significant immune protection
